{"source": "patent EP2987533B1", "about": "“7-substituted piperazin-1-yl fluoroquinolone compounds, their use in the treatment of cancer, pharmaceutical compositions and a method for preparation” (priority 2014, dated 2016)", "key": {"786-0": {"system": "786-0", "test": "NCI five-dose SRB growth assay", "assay_type": "cell-based", "conditions": "Homo sapiens; 786-0 (Renal Cancer), 48 h"}, "COLO 205": {"system": "COLO 205", "test": "NCI five-dose SRB growth assay", "assay_type": "cell-based", "conditions": "Homo sapiens; COLO 205 (Colon Cancer), 48 h"}, "T-47D [1]": {"system": "T-47D", "test": "NCI five-dose SRB growth assay", "assay_type": "cell-based", "conditions": "Homo sapiens, T47D; T-47D (Breast Cancer), 48 h"}, "T-47D [2]": {"system": "T-47D", "test": "NCI one-dose SRB growth assay", "assay_type": "cell-based", "conditions": "Homo sapiens, T47D; T-47D (Breast Cancer), 10^-5 M, 48 h; read-out: % Growth Inhibition (GI %)", "how_it_was_run": "(§1)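 Compounds tested at a single concentration of 10^-5M on cultured human tumor cells for 48 h. Sulforhodamine B protein staining read spectrophotometrically; values are growth percentage of treated cells relative to untreated controls.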"}, "NCI-H322M": {"system": "NCI-H322M", "test": "NCI one-dose SRB growth assay", "assay_type": "cell-based", "conditions": "Homo sapiens; NCI-H322M (Non-Small Cell Lung Cancer), 10^-5 M, 48 h; read-out: % Growth Inhibition (GI %)"}, "HL-60(TB)": {"system": "HL-60(TB)", "test": "NCI one-dose SRB growth assay", "assay_type": "cell-based", "conditions": "Homo sapiens; HL-60(TB) (Leukemia), 10^-5 M, 48 h; read-out: % Growth Inhibition (GI %)"}, "SK-MEL-2": {"system": "SK-MEL-2", "test": "NCI one-dose SRB growth assay", "assay_type": "cell-based", "conditions": "Homo sapiens; SK-MEL-2 (Melanoma), 10^-5 M, 48 h; read-out: % Growth Inhibition (GI %)"}, "ACHN [3]": {"system": "ACHN", "test": "NCI one-dose SRB growth assay", "assay_type": "cell-based", "conditions": "Homo sapiens; ACHN (Renal Cancer), 10^-5 M, 48 h; read-out: % Growth Inhibition (GI %)", "how_it_was_run": "as §1"}, "prostate cancer": {"system": "prostate cancer", "test": "NCI five-dose SRB assay, subpanel average", "conditions": "48 h"}, "NSC lung cancer": {"system": "NSC lung cancer", "test": "NCI five-dose SRB assay, subpanel average", "conditions": "48 h"}, "MDA-MB-435": {"system": "MDA-MB-435", "test": "NCI five-dose SRB growth assay", "assay_type": "cell-based", "conditions": "Homo sapiens; MDA-MB-435 (Melanoma), 48 h"}, "SK-MEL-5": {"system": "SK-MEL-5", "test": "NCI five-dose SRB growth assay", "assay_type": "cell-based", "conditions": "Homo sapiens; SK-MEL-5 (Melanoma), 48 h"}, "[4]": {"system": "60 human tumor cell line panel", "test": "NCI 60 cell line one-dose SRB primary anticancer assay", "assay_type": "cell-based", "conditions": "60 cell lines assay in one dose, 10µM (title; head prints 10.0 mM), 48 h; for inhibition at 10 µM: Homo sapiens, read-out: MGI % (Mean growth inhibition percentage)", "method": "A primary anticancer assay was performed for an approximately 60 human tumor cell line panel derived from nine neoplastic diseases, in accordance with the protocol of the Drug Evaluation Branch, National Cancer Institute, Bethesda, MD (Monks A. et al., J. Natl. Cancer Inst 1991, 83, 757-766; Boyd M.R. and Paull K.D., Drug. Dev. Res. 1995, 34, 91-109; Shoemaker R.H., Nat. Rev. Cancer 2006, 6, 813-823). Briefly, tested compounds were added to the culture at a single concentration (10^-5M), and the cultures were incubated for 48 h. End point determinations were made with a protein binding dye, sulforhodamine B (SRB). The results for each tested compound were reported as the growth percentage of the treated cells when compared to that of the untreated control cells. The percentage growth was evaluated spectrophotometrically versus controls not treated with test agents."}, "SN12C": {"system": "SN12C", "test": "NCI five-dose SRB growth assay", "assay_type": "cell-based", "conditions": "Homo sapiens; SN12C (Renal Cancer), 48 h"}, "ovarian cancer": {"system": "ovarian cancer", "test": "NCI five-dose SRB assay, subpanel average", "conditions": "48 h"}, "UACC-62": {"system": "UACC-62", "test": "NCI five-dose SRB growth assay", "assay_type": "cell-based", "conditions": "Homo sapiens; UACC-62 (Melanoma), 48 h"}, "CNS cancer": {"system": "CNS cancer", "test": "NCI five-dose SRB assay, subpanel average", "conditions": "48 h"}, "BT-549": {"system": "BT-549", "test": "NCI five-dose SRB growth assay", "assay_type": "cell-based", "conditions": "Homo sapiens; BT-549 (Breast Cancer), 48 h"}, "SF-268": {"system": "SF-268", "test": "NCI five-dose SRB growth assay", "assay_type": "cell-based", "conditions": "Homo sapiens; SF-268 (CNS Cancer), 48 h"}, "HCT-116": {"system": "HCT-116", "test": "NCI five-dose SRB growth assay", "assay_type": "cell-based", "conditions": "Homo sapiens; HCT-116 (Colon Cancer), 48 h"}, "renal cancer": {"system": "renal cancer", "test": "NCI five-dose SRB assay, subpanel average", "conditions": "48 h"}, "melanoma": {"system": "melanoma", "test": "NCI five-dose SRB assay, subpanel average", "conditions": "48 h"}, "SF-539": {"system": "SF-539", "test": "NCI five-dose SRB growth assay", "assay_type": "cell-based", "conditions": "Homo sapiens; SF-539 (CNS Cancer), 48 h"}, "ACHN [5]": {"system": "ACHN", "test": "NCI five-dose SRB growth assay", "assay_type": "cell-based", "conditions": "Homo sapiens; ACHN (Renal Cancer), 48 h"}, "leukemia": {"system": "leukemia", "test": "NCI five-dose SRB assay, subpanel average", "conditions": "48 h"}, "breast cancer": {"system": "breast cancer", "test": "NCI five-dose SRB assay, subpanel average", "conditions": "48 h"}, "colon cancer": {"system": "colon cancer", "test": "NCI five-dose SRB assay, subpanel average", "conditions": "48 h"}, "HOP-62": {"system": "HOP-62", "test": "NCI one-dose SRB growth assay", "assay_type": "cell-based", "conditions": "Homo sapiens; HOP-62 (Non-Small Cell Lung Cancer), 10^-5 M, 48 h; read-out: % Growth Inhibition (GI %)", "how_it_was_run": "as §1"}, "MDA-MB-468": {"system": "MDA-MB-468", "test": "NCI one-dose SRB growth assay", "assay_type": "cell-based", "conditions": "Homo sapiens; MDA-MB-468 (Breast Cancer), 10^-5 M, 48 h; read-out: % Growth Inhibition (GI %)", "how_it_was_run": "as §1"}, "[6]": {"conditions": "Homo sapiens, read-out: GI50 (median growth inhibitory)"}, "[7]": {"conditions": "Homo sapiens, read-out: LC50 (median lethal)"}}}
{"compound": "CCn1cc(C(=O)O)c(=O)c2cc(F)c(N3CCN(S(=O)(=O)c4ccc(Cl)cc4)CC3)cc21", "note": "[Compound 1a]", "values": [{"measurement": "GI50", "setting": "786-0", "result": 3.77, "unit": "µM"}, {"measurement": "GI50", "setting": "COLO 205", "result": 2.62, "unit": "µM"}, {"measurement": "GI50", "setting": "T-47D [1]", "result": 3.2, "unit": "µM"}, {"measurement": "inhibition at 10 µM", "setting": "T-47D [2]", "result": 58.9, "unit": "%"}, {"measurement": "inhibition at 10 µM", "setting": "NCI-H322M", "result": 54.1, "unit": "%"}, {"measurement": "inhibition at 10 µM", "setting": "HL-60(TB)", "result": 91, "unit": "%"}, {"measurement": "inhibition at 10 µM", "setting": "SK-MEL-2", "result": 56.2, "unit": "%"}, {"measurement": "inhibition at 10 µM", "setting": "ACHN [3]", "result": 71.3, "unit": "%"}, {"measurement": "GI50", "setting": "prostate cancer; [6]", "result": 3.21, "unit": "µM"}, {"measurement": "CC50", "setting": "prostate cancer; [7]", "result": "> 100", "unit": "µM"}, {"measurement": "TGI (total growth inhibitory)", "setting": "prostate cancer; average over prostate cancer subpanel, five concentrations", "result": 54.11, "unit": "µM"}, {"measurement": "GI50", "setting": "NSC lung cancer; [6]", "result": 2.87, "unit": "µM"}, {"measurement": "CC50", "setting": "NSC lung cancer; [7]", "result": "> 100", "unit": "µM"}, {"measurement": "TGI (total growth inhibitory)", "setting": "NSC lung cancer; average over NSC lung cancer subpanel, five concentrations", "result": 53.38, "unit": "µM"}, {"measurement": "GI50", "setting": "MDA-MB-435", "result": 2.47, "unit": "µM"}, {"measurement": "GI50", "setting": "SK-MEL-5", "result": 1.8, "unit": "µM"}, {"measurement": "PCE (Positive cytotoxic effect: ratio between number of cell lines with percentage growth inhibition from 10 to >100 and total number of cell lines)", "setting": "[4]", "result": "56/56"}, {"measurement": "RGI % (Range of growth inhibition percentage)", "setting": "[4]", "result": ">100.0 to 31.3", "unit": "%"}, {"measurement": "inhibition at 10 µM", "setting": "[4]", "result": 75.6, "unit": "%"}, {"measurement": "GI50", "setting": "SN12C", "result": 2.92, "unit": "µM"}, {"measurement": "GI50", "setting": "ovarian cancer; [6]", "result": 3.16, "unit": "µM"}, {"measurement": "CC50", "setting": "ovarian cancer; [7]", "result": "> 100", "unit": "µM"}, {"measurement": "TGI (total growth inhibitory)", "setting": "ovarian cancer; average over ovarian cancer subpanel, five concentrations", "result": 54.29, "unit": "µM"}, {"measurement": "GI50", "setting": "UACC-62", "result": 2.02, "unit": "µM"}, {"measurement": "GI50", "setting": "CNS cancer; [6]", "result": 3.57, "unit": "µM"}, {"measurement": "CC50", "setting": "CNS cancer; [7]", "result": "> 100", "unit": "µM"}, {"measurement": "TGI (total growth inhibitory)", "setting": "CNS cancer; average over CNS cancer subpanel, five concentrations", "result": 70.26, "unit": "µM"}, {"measurement": "GI50", "setting": "BT-549", "result": 2.44, "unit": "µM"}, {"measurement": "GI50", "setting": "SF-268", "result": 3.85, "unit": "µM"}, {"measurement": "GI50", "setting": "HCT-116", "result": 3.18, "unit": "µM"}, {"measurement": "GI50", "setting": "renal cancer; [6]", "result": 2.93, "unit": "µM"}, {"measurement": "CC50", "setting": "renal cancer; [7]", "result": "> 100", "unit": "µM"}, {"measurement": "TGI (total growth inhibitory)", "setting": "renal cancer; average over renal cancer subpanel, five concentrations", "result": 54.00, "unit": "µM"}, {"measurement": "GI50", "setting": "melanoma; [6]", "result": 2.56, "unit": "µM"}, {"measurement": "CC50", "setting": "melanoma; [7]", "result": 89.7, "unit": "µM"}, {"measurement": "TGI (total growth inhibitory)", "setting": "melanoma; average over melanoma subpanel, five concentrations", "result": 29.36, "unit": "µM"}, {"measurement": "GI50", "setting": "SF-539", "result": 4.12, "unit": "µM"}, {"measurement": "GI50", "setting": "ACHN [5]", "result": 3.09, "unit": "µM"}, {"measurement": "GI50", "setting": "leukemia; [6]", "result": 2.89, "unit": "µM"}, {"measurement": "CC50", "setting": "leukemia; [7]", "result": "> 100", "unit": "µM"}, {"measurement": "TGI (total growth inhibitory)", "setting": "leukemia; average over leukemia subpanel, five concentrations", "result": 80.96, "unit": "µM"}, {"measurement": "GI50", "setting": "breast cancer; [6]", "result": 2.95, "unit": "µM"}, {"measurement": "CC50", "setting": "breast cancer; [7]", "result": "> 100", "unit": "µM"}, {"measurement": "TGI (total growth inhibitory)", "setting": "breast cancer; average over breast cancer subpanel, five concentrations", "result": 54.63, "unit": "µM"}, {"measurement": "GI50", "setting": "colon cancer; [6]", "result": 3.38, "unit": "µM"}, {"measurement": "CC50", "setting": "colon cancer; [7]", "result": 95.2, "unit": "µM"}, {"measurement": "TGI (total growth inhibitory)", "setting": "colon cancer; average over colon cancer subpanel, five concentrations", "result": 73.15, "unit": "µM"}]}
{"compound": "O=C(O)c1cn(C2CC2)c2cc(N3CCN(S(=O)(=O)c4ccc(Cl)cc4Cl)CC3)c(F)cc2c1=O", "note": "[Compound 2b]", "values": [{"measurement": "inhibition at 10 µM", "setting": "T-47D [2]", "result": 26.4, "unit": "%"}, {"measurement": "inhibition at 10 µM", "setting": "NCI-H322M", "result": 12.8, "unit": "%"}, {"measurement": "inhibition at 10 µM", "setting": "HL-60(TB)", "result": 13.1, "unit": "%"}, {"measurement": "inhibition at 10 µM", "setting": "SK-MEL-2", "result": "< 10", "unit": "%"}, {"measurement": "inhibition at 10 µM", "setting": "ACHN [3]", "result": 14.9, "unit": "%"}, {"measurement": "inhibition at 10 µM", "setting": "HOP-62", "result": 11.8, "unit": "%"}, {"measurement": "inhibition at 10 µM", "setting": "MDA-MB-468", "result": 65.1, "unit": "%"}, {"measurement": "PCE (Positive cytotoxic effect: ratio between number of cell lines with percentage growth inhibition from 10 to >100 and total number of cell lines)", "setting": "[4]", "result": "30/58"}, {"measurement": "RGI % (Range of growth inhibition percentage)", "setting": "[4]", "result": "79.75 to 11.78", "unit": "%"}, {"measurement": "inhibition at 10 µM", "setting": "[4]", "result": 17.4, "unit": "%"}]}
